We go through 15 compounds from patent US12600709B2, “Nonpeptide somatostatin type 5 receptor agonists and uses thereof” (Crinetics Pharmaceuticals, Inc., priority 2019, dated 2026).

Like-named read-outs stand apart in the source and are kept apart here.

The target of assay [1] is T1, human somatostatin receptor subtype 5 (Homo sapiens, UniProt P35346).
T1 construct: expressed in transfected cells
Briefly: cAMP assay for SST5R (inhibition of cAMP in CHO-K1 cells). It is filed as cell-based. The settings on record: for EC50: inhibition of cAMP via human SST5 receptor, read-out: SST5 potency; for Fold selectivity for SST5 vs SST2: class symbols, SST5 receptor over SST2 receptor. An outline of the steps:
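CHO-K1 cells stably expressing human SSTR5 were treated 20 min at 37 °C with compounds plus 1.6 μM NKH477 in HBSS, 0.5 mM HEPES pH 7.4, 0.1% BSA, 0.2 mM IBMX. Lysate cAMP measured by HTRF against a standard curve; EC50 from cAMP-versus-concentration plots.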

The target of assay [2] is T2, human somatostatin receptor subtype 2 (Homo sapiens, UniProt P30874).
T2 construct: expressed in transfected cells
Briefly: cAMP assay for SST2R (inhibition of cAMP in CHO-K1 cells). It is filed as cell-based. The note with it: Table B; inhibition of cAMP via human SST2 receptor; read-out: SST2 potency. A digest of the protocol:
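Agonism read as decrease in NKH477 (1.6 μM)-stimulated cAMP: compounds applied 20 min, 37° C, with 0.2 mM IBMX, to CHO-K1 stably expressing human SSTR2. cAMP quantified in lysates by time-resolved fluorescence (HTRF kit, 1-24 h RT), standard-curve regression, then EC50.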
On the technique in general: cAMP levels reflect the balance of adenylyl cyclase and phosphodiesterase activity.

T1 sequence (P35346 whole entry): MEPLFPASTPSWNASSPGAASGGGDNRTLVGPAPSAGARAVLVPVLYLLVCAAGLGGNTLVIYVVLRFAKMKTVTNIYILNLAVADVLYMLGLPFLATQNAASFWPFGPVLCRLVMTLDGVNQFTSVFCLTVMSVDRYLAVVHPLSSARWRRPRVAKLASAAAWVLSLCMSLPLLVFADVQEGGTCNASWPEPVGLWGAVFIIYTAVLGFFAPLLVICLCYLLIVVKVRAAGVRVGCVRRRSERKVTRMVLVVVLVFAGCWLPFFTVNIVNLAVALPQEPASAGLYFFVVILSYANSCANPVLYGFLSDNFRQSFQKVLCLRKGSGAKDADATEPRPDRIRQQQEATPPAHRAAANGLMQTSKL
T2 sequence (P30874 whole entry): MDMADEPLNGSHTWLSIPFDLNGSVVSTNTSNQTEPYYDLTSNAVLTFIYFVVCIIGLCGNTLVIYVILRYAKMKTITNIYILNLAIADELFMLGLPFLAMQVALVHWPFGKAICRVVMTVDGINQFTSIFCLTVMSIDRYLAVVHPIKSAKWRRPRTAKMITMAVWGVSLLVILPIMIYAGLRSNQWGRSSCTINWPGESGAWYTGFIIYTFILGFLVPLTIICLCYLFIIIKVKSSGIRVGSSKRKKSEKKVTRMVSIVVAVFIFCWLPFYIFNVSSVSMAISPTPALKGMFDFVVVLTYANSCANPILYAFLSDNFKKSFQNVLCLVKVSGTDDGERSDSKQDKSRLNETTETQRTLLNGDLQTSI

`Cc1ncc(C(=O)N[C@@H](C)C(F)(F)F)c(N2CC[C@H](N)C2)c1-c1cc(F)cc(F)c1` [1-230, 4-[(3S)-3-aminopyrrolidin-1-yl]-5-(3,5-difluorophenyl)-6-methyl-N-[(2S)-1,1,1-trifluoropropan-2-yl]pyridine-3-carboxamide]: the EC50 in assay [1] (Table A) was less than 10 nM; in assay [1] (Table B), less than 10 nM; in assay [2] it was 100 to 1000 nM. In addition, the “Fold selectivity for SST5 vs SST2” value in assay [1] (Table B) is “++ (++=100 to 499)”.

`Cc1ncc(C(=O)N[C@@H](C)C(F)(F)F)c(N2CC[C@H](N)C2)c1-c1cc(F)cc(OC(F)F)c1` [1-231, 4-[(3S)-3-aminopyrrolidin-1-yl]-5-[3-(difluoromethoxy)-5-fluorophenyl]-6-methyl-N-[(2S)-1,1,1-trifluoropropan-2-yl]pyridine-3-carboxamide]: the EC50 in assay [1] (Table A) is less than 10 nM; in assay [1] (Table B) it was less than 10 nM; in assay [2], 100 to 1000 nM. For the same compound, the “Fold selectivity for SST5 vs SST2” value in assay [1] (Table B) was “+++ (+++=>500)”.

`Cc1ncc(C(=O)N[C@@H](C)C(F)(F)F)c(N2CC[C@H](N)C2)c1-c1cccc(OC(F)F)c1` [1-232, 4-[(3S)-3-aminopyrrolidin-1-yl]-5-[3-(difluoromethoxy)phenyl]-6-methyl-N-[(2S)-1,1,1-trifluoropropan-2-yl]pyridine-3-carboxamide]: the EC50 in assay [1] (Table A) is less than 10 nM; in assay [1] (Table B), less than 10 nM; in assay [2] it was more than 1000 nM. In assay [1] (Table B), the “Fold selectivity for SST5 vs SST2” value is listed as “+++ (+++=>500)”.

Take `Cc1ncc(C(=O)NC2CCC(F)(F)CC2)c(N2CC[C@H](N)C2)c1-c1cc(F)cc(F)c1` [1-233, 4-[(3S)-3-aminopyrrolidin-1-yl]-N-(4,4-difluorocyclohexyl)-5-(3,5-difluorophenyl)-6-methylpyridine-3-carboxamide]: the EC50 is less than 10 nM in assay [1] (Table A), less than 10 nM in assay [1] (Table B) and more than 1000 nM in assay [2]. Also, the “Fold selectivity for SST5 vs SST2” value in assay [1] (Table B) is recorded as “+++ (+++=>500)”.

Consider `C[C@]1(N)CCN(c2c(C(=O)NC34CC(F)(C3)C4)cnc(C#N)c2-c2cc(F)cc(F)c2)C1` [1-234, 4-[(3S)-3-amino-3-methylpyrrolidin-1-yl]-6-cyano-5-(3,5-difluorophenyl)-N-{3-fluorobicyclo[1.1.1]pentan-1-yl}pyridine-3-carboxamide], for which the EC50 in assay [1] (Table A) was less than 10 nM; in assay [1] (Table B) it was less than 10 nM; in assay [2] it was 100 to 1000 nM. Also, in assay [1] (Table B), the “Fold selectivity for SST5 vs SST2” value was “+++ (+++=>500)”.

As to `COc1ncc(C(=O)NCc2ccon2)c(N2CC[C@](C)(N)C2)c1-c1cc(F)cc(Cl)c1` [1-238, 4-[(3S)-3-amino-3-methylpyrrolidin-1-yl]-5-(3-chloro-5-fluorophenyl)-6-methoxy-N-[(1,2-oxazol-3-yl)methyl]pyridine-3-carboxamide], the EC50 in assay [1] (Table A) was less than 10 nM; in assay [1] (Table B), less than 10 nM; in assay [2], 100 to 1000 nM. For the same compound, in assay [1] (Table B), the “Fold selectivity for SST5 vs SST2” value is reported as “+++ (+++=>500)”.

Take `COc1ncc(C(=O)NCc2ccon2)c(N2CC[C@](C)(N)C2)c1-c1cc(F)cc(OC(F)F)c1` [1-239, 4-[(3S)-3-amino-3-methylpyrrolidin-1-yl]-5-[3-(difluoromethoxy)-5-fluorophenyl]-6-methoxy-N-[(1,2-oxazol-3-yl)methyl]pyridine-3-carboxamide]: the EC50 in assay [1] (Table A) was less than 10 nM; in assay [1] (Table B), less than 10 nM; in assay [2], more than 1000 nM. Further, the “Fold selectivity for SST5 vs SST2” value in assay [1] (Table B) is reported as “+++ (+++=>500)”.

On to `COc1ncc(C(=O)N[C@@H](C)c2ccccn2)c(N2CC[C@](C)(N)C2)c1-c1cc(F)cc(Cl)c1` [1-240, 4-[(3S)-3-amino-3-methylpyrrolidin-1-yl]-5-(3-chloro-5-fluorophenyl)-6-methoxy-N-[(1S)-1-(pyridin-2-yl)ethyl]pyridine-3-carboxamide], for which the figures for the EC50 in assay [1] (Table A), in assay [1] (Table B) and in assay [2] were less than 10 nM, less than 10 nM and 100 to 1000 nM, respectively. Further, the “Fold selectivity for SST5 vs SST2” value in assay [1] (Table B) is “+++ (+++=>500)”.

As for `Cc1ncc(C(=O)NCc2ccon2)c(N2CC[C@](C)(N)C2)c1-c1cc(F)cc(Cl)c1` [1-242, 4-[(3S)-3-amino-3-methylpyrrolidin-1-yl]-5-(3-chloro-5-fluorophenyl)-6-methyl-N-[(1,2-oxazol-3-yl)methyl]pyridine-3-carboxamide], the values for the EC50 in assay [1] (Table A), in assay [1] (Table B) and in assay [2] were less than 10 nM, less than 10 nM and more than 1000 nM, respectively. Moreover, the “Fold selectivity for SST5 vs SST2” value in assay [1] (Table B) was “+++ (+++=>500)”.

For the compound `C[C@]1(N)CCN(c2c(C(=O)NCc3ccon3)cnc(C#N)c2-c2cc(F)cc(Cl)c2)C1` [1-244, 4-[(3S)-3-amino-3-methylpyrrolidin-1-yl]-5-(3-chloro-5-fluorophenyl)-6-cyano-N-[(1,2-oxazol-3-yl)methyl]pyridine-3-carboxamide], the EC50 in assay [1] (Table A) was less than 10 nM; in assay [1] (Table B) it was less than 10 nM; in assay [2] it was 100 to 1000 nM. In addition, the “Fold selectivity for SST5 vs SST2” value in assay [1] (Table B) is “+++ (+++=>500)”.

Turning to `C[C@H](NC(=O)c1cnc(C#N)c(-c2cc(F)cc(Cl)c2)c1N1CC[C@](C)(N)C1)c1ccccn1` [1-245, 4-[(3S)-3-amino-3-methylpyrrolidin-1-yl]-5-(3-chloro-5-fluorophenyl)-6-cyano-N-[(1 S)-1-(pyridin-2-yl)ethyl]pyridine-3-carboxamide], the EC50 in assay [1] (Table A) is less than 10 nM; in assay [1] (Table B) it was less than 10 nM; in assay [2] it was more than 1000 nM. For the same compound, in assay [1] (Table B), the “Fold selectivity for SST5 vs SST2” value is “+++ (+++=>500)”.

For the compound `C[C@H](NC(=O)c1cnc(OCCO)c(-c2cc(F)cc(F)c2)c1N1CC[C@](C)(N)C1)C1CC1` [1-246, 4-[(3S)-3-amino-3-methylpyrrolidin-1-yl]-N-[(1S)-1-cyclopropylethyl]-5-(3,5-difluorophenyl)-6-(2-hydroxyethoxy)pyridine-3-carboxamide], the EC50 is less than 10 nM in assay [1] (Table A), less than 10 nM in assay [1] (Table B) and 100 to 1000 nM in assay [2]. In addition, the “Fold selectivity for SST5 vs SST2” value in assay [1] (Table B) was “+++ (+++=>500)”.

Turning to `C[C@H](NC(=O)c1cnc(OCC(=O)O)c(-c2cc(F)cc(F)c2)c1N1CC[C@](C)(N)C1)C1CC1` [1-247, 2-({4-[(3S)-3-amino-3-methylpyrrolidin-1-yl]-5-{[(1S)-1-cyclopropylethyl]carbamoyl}-3-(3,5-difluorophenyl)pyridin-2-yl}oxy)acetic acid], the EC50 in assay [1] (Table A) is less than 10 nM; in assay [1] (Table B) it was less than 10 nM; in assay [2], more than 1000 nM. In addition, in assay [1] (Table B), the “Fold selectivity for SST5 vs SST2” value is on record as “+++ (+++=>500)”.

`C[C@]1(N)CCN(c2c(C(=O)NC3CCCC3)cnc(C#N)c2-c2ccnc(C(F)(F)F)c2)C1` [1-248, 4-[(3S)-3-amino-3-methylpyrrolidin-1-yl]-2-cyano-N-cyclopentyl-2′-(trifluoromethyl)-[3,4′-bipyridine]-5-carboxamide]: the EC50 in assay [1] (Table A) was less than 10 nM; in assay [1] (Table B), less than 10 nM; in assay [2], more than 1000 nM. The “Fold selectivity for SST5 vs SST2” value in assay [1] (Table B) is “+++ (+++=>500)”.

As for `CCC(CC)NC(=O)c1cnc(C#N)c(-c2ccnc(C(F)(F)F)c2)c1N1CC[C@](C)(N)C1` [1-249, 4-[(3S)-3-amino-3-methylpyrrolidin-1-yl]-2-cyano-N-(pentan-3-yl)-2′-(trifluoromethyl)-[3,4′-bipyridine]-5-carboxamide], the EC50 is less than 10 nM in assay [1] (Table A), less than 10 nM in assay [1] (Table B) and 100 to 1000 nM in assay [2]. In addition, in assay [1] (Table B), the “Fold selectivity for SST5 vs SST2” value was “+++ (+++=>500)”.
